Measured values published in patent US20260167623A1 (NIKANG THERAPEUTICS, INC., priority 2022, published 2026).

Biological target: T1, CDK2 (Homo sapiens, UniProt P24941)
T1 construct: High-Throughput Measurement of Cellular Endogenous CDK2; endogenous in cells; host or cells: OVCAR3
Assay: Inhibition of CDK2: phospho-Rb (S807/811) HTRF measurement in OVCAR3 cells, 24 h
Format: cell-based
Conditions: 24 h compound treatment, read-out: pRB_OVCAR3_24h
Summary of the method: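 OVCAR3 cells, seeded overnight, were exposed to compounds at 0.3 to 10,000 nM for 24 h, then lysed. Rb S807/811 phosphorylation read by HTRF (665/620 nm ratio) after 4 h detection at room temperature; data normalized to DMSO and IC50 from four-parameter logistic fit.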

| IC50 [nM] | Compound |
| --- | --- |
| 500 to 2500 | Cn1nc(N2CCC(=O)NC2=O)c2ccc(N3CC4CC(C3)N4CC3CCN(c4cccc(S(=O)(=O)N5CCC(Nc6ncc(C(F)(F)F)cn6)CC5)c4)CC3)cc21 [Example 126, 1-(1-methyl-6-(6-((1-(3-((4-((5-(trifluoro-methyl)pyrimidin-2-yl)amino)piperidin-1-yl)sulfonyl)phenyl)piperidin-4-yl)methyl)-3,6-diazabicyclo[3.1.1]heptan-3-yl)-1H-indazol-3-yl)dihydropyrimidine-2,4(1H,3H)-dione] |
| 500 to 2500 | O=C1CCN(c2nn(CC(F)(F)F)c3cc(C4CCN(Cc5cccc(S(=O)(=O)N6CCC(Nc7ncc(Cl)cn7)CC6)c5)CC4)ccc23)C(=O)N1 [Example 21] |
| 100 to 500 | CC1(C)C(=O)N(C2CCC(=O)NC2=O)c2cccc(C3CCN(CC4CCN(c5cc(S(=O)(=O)N6CCC(Nc7ncc(Cl)cn7)CC6)ccc5C#N)CC4)CC3)c21 (stereo not drawn) [Example 207, 4-((4-((5-chloropyrimidin-2-yl)amino)piperidin-1-yl)sulfonyl)-2-(4-((4-(1-(2,6-dioxopiperidin-3-yl)-3,3-dimethyl-2-oxoindolin-4-yl)piperidin-1-yl)methyl)piperidin-1-yl)benzonitrile] |
| > 2500 | Cn1nc(N2CCC(=O)NC2=O)c2ccc(C3CCN(CC4CCN(c5cccc(S(=O)(=O)N6CC(Nc7ncc(C(F)(F)F)cn7)C6)c5)CC4)CC3)cc21 [Example 178, 1-(1-methyl-6-(1-((1-(3-((3-((5-(trifluoromethyl)pyrimidin-2-yl)amino)azetidin-1-yl)sulfonyl)phenyl)piperidin-4-yl)methyl)piperidin-4-yl)-1H-indazol-3-yl)dihydropyrimidine-2,4(1H,3H)-dione] |
| 100 to 500 | Cn1nc(N2CCC(=O)NC2=O)c2ccc(C3CCN(C[C@@H]4CCCN4c4cc(S(=O)(=O)N5CCC(Nc6ncc(OC(F)F)cn6)CC5)ccc4C#N)CC3)cc21 [Example 256, (S)-4-((4-((5-(difluoromethoxy)pyrimidin-2-yl)amino)piperidin-1-yl)sulfonyl)-2-(2-((4-(3-(2,4-dioxotetrahydropyrimidin-1(2H)-yl)-1-methyl-1H-indazol-6-yl)piperidin-1-yl)methyl)pyrrolidin-1-yl)benzonitrile] |
| 100 to 500 | O=C1CCN(c2cccc(C3CCN(CC4CCN(c5cccc(S(=O)(=O)N6CCC(Nc7ncc(Cl)cn7)CC6)c5)CC4)CC3)c2)C(=O)N1 [Example 182, 1-(3-(1-((1-(3-((4-((5-chloropyrimidin-2-yl)amino)piperidin-1-yl)sulfonyl)phenyl)piperidin-4-yl)methyl)piperidin-4-yl)phenyl) dihydropyrimidine-2,4(1H,3H)-dione] |
| 500 to 2500 | Cn1c(=O)n(C2CCC(=O)NC2=O)c2cccc(C3CCN(CC4CCN(c5cc(C(F)(F)F)cc(S(=O)(=O)N6CCC(Nc7ncc(OC(F)F)cn7)CC6)c5)CC4)CC3)c21 (stereo not drawn) [Example 176, 3-(4-(1-((1-(3-((4-((5-(difluoromethoxy)pyrimidin-2-yl)amino)piperidin-1-yl)sulfonyl)-5-(trifluoromethyl)phenyl)piperidin-4-yl)methyl)piperidin-4-yl)-3-methyl-2-oxo-2,3-dihydro-1H-benzo[d]imidazol-1-yl)piperidine-2,6-dione] |
| 500 to 2500 | Cn1c(=O)n(C2CCC(=O)NC2=O)c2cccc(C3CCN(CC4CCN(c5cc(C(F)(F)F)cc(S(=O)(=O)N6CCC(Nc7ncc(Cl)cn7)CC6)c5)CC4)CC3)c21 (stereo not drawn) [Example 173, 3-(4-(1-((1-(3-((4-((5-chloropyrimidin-2-yl)amino)piperidin-1-yl)sulfonyl)-5-(trifluoromethyl)phenyl)piperidin-4-yl)methyl)piperidin-4-yl)-3-methyl-2-oxo-2,3-dihydro-1H-benzo[d]imidazol-1-yl)piperidine-2,6-dione] |
| > 2500 | Cn1nc(N2CCC(=O)NC2=O)c2ccc(C3CCN(Cc4ccc(C5CCN(S(=O)(=O)N6CCC(Nc7ncc(Cl)cn7)CC6)CC5)cc4)CC3)cc21 [Example 139, 1-(6-(1-(4-(1-((4-((5-chloropyrimidin-2-yl)amino)piperidin-1-yl)sulfonyl)piperidin-4-yl)benzyl)piperidin-4-yl)-1-methyl-1H-indazol-3-yl)dihydropyrimidine-2,4(1H,3H)-dione] |
